Molecules are shown by their SMILES.

The subject of data set [1] is recombinant NL4-3 virus (nef section replaced with Renilla luciferase gene) in MT-2 cells. Put plainly: HIV cell culture assay (antiviral activity, luciferase readout). It is filed as cell-based. As to conditions: Renilla, NL43, MT-2 cells infected for 4-5 days with recombinant NL4-3 Renilla luciferase virus. An outline of the steps:
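MT-2 cells were infected for 4-5 days with reporter virus made by transfecting the recombinant NL4-3 proviral clone into 293T cells, in the presence of serial compound dilutions. Luciferase activity was read with a live-cell substrate. EC50 came from the exponential median effect equation, (Fa)=1/[1+(ED50/drug conc.)m].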

Data set [2] in a line: Compound cytotoxicity, XTT-based colorimetric assay. Format: cell-based. As to conditions: human; uninfected MT2 cells, day 4, XTT; read-out: CC50. An outline of the steps: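 CC50 derived from XTT colorimetric signal measured on day 4 in MT2 cells that were not infected. All other steps followed the antiviral assay protocol.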
A general note: Tetrazolium assays rely on reduction of a dye to a coloured formazan, in cell work by metabolically active cells.

What is called EC50 is the concentration giving half of the maximal effect. The CC50 is the concentration that lowers cell viability or growth by half. In the case of `Cc1cc(C2CCC(F)(F)CC2)nc2nc([C@H](Cc3cc(F)cc(F)c3)NC(=O)Cn3nc(C4CC4)c4c3C[C@@H]3C[C@H]43)n(-c3ccc(Cl)c4c(NS(C)(=O)=O)nn(CCN5CC(F)(F)C(F)(F)C5)c34)c(=O)c12` (atropisomer, axis not shown; (P)) [Example 248, N-[(1S)-1-[(3P)-3-{4-chloro-3-methanesulfonamido-1-[2-(3,3,4,4-tetrafluoropyrrolidin-1-yl)ethyl]-1H-indazol-7-yl}-7-(4,4-difluorocyclohexyl)-5-methyl-4-oxo-3H,4H-pyrido[2,3-d]pyrimidin-2-yl]-2-(3,5-difluorophenyl)ethyl]-2-[(2S,4S)-9-cyclopropyl-7,8-diazatricyclo[4.3.0.0^2,^4]nona-1(6),8-dien-7-yl]acetamide], the EC50 in data set [1] stood at 0.018 nM. Moreover, the CC50 at 4 days in data set [2] is over 50 nM.

On to `CO[C@H]1CCN(CCn2nc(NS(C)(=O)=O)c3c(Cl)ccc(-n4c([C@H](Cc5cc(F)cc(F)c5)NC(=O)Cn5nc(C(F)F)c6c5C(F)(F)[C@@H]5C[C@H]65)nc5nc(C6CCC(F)(F)CC6)cc(C(F)F)c5c4=O)c32)C1` (atropisomer, axis not shown; (P)) [Example 257, N-[(1S)-1-[(3P)-3-(4-chloro-3-methanesulfonamido-1-{2-[(3S)-3-methoxypyrrolidin-1-yl]ethyl}-1H-indazol-7-yl)-7-(4,4-difluorocyclohexyl)-5-(difluoromethyl)-4-oxo-3H,4H-pyrido[2,3-d]pyrimidin-2-yl]-2-(3,5-difluorophenyl)ethyl]-2-[(2S,4R)-9-(difluoromethyl)-5,5-difluoro-7,8-diazatricyclo[4.3.0.0^2,^4]nona-1(6),8-dien-7-yl]acetamide], for which the EC50 in data set [1] was found to be 0.027 nM. Moreover, the CC50 at 4 days in data set [2] is over 50 nM.

Regarding `CS(=O)(=O)Nc1nn(CCN2C[C@@H](F)[C@@H](F)C2)c2c(-n3c([C@H](Cc4cc(F)cc(F)c4)NC(=O)Cn4nc(C(F)F)c5c4C(F)(F)[C@@H]4C[C@H]54)nc4nc(C5CCC(F)(F)CC5)cc(C(F)F)c4c3=O)ccc(Cl)c12` (atropisomer, axis not shown; (P)) [Example 259, N-[(1S)-1-[(3P)-3-(4-chloro-1-{2-[(3R,4S)-3,4-difluoropyrrolidin-1-yl]ethyl}-3-methanesulfonamido-1H-indazol-7-yl)-7-(4,4-difluorocyclohexyl)-5-(difluoromethyl)-4-oxo-3H,4H-pyrido[2,3-d]pyrimidin-2-yl]-2-(3,5-difluorophenyl)ethyl]-2-[(2S,4R)-9-(difluoromethyl)-5,5-difluoro-7,8-diazatricyclo[4.3.0.0^2,^4]nona-1(6),8-dien-7-yl]acetamide], the EC50 in data set [1] was found to be 0.025 nM. Further, the CC50 at 4 days in data set [2] was over 50 nM.

Regarding `Cc1cc(C2CCC(F)(F)CC2)nc2nc([C@H](Cc3cc(F)cc(F)c3)NC(=O)Cn3nc(C(F)F)c4c3C(F)(F)[C@@H]3C[C@H]43)n(-c3ccc(Cl)c4c(NS(C)(=O)=O)nn(CCN5CCCC5)c34)c(=O)c12` (atropisomer, axis not shown; (P)) [Example 266, N-[(1S)-1-[(3P)-3-{4-chloro-3-methanesulfonamido-1-[2-(pyrrolidin-1-yl)ethyl]-1H-indazol-7-yl}-7-(4,4-difluorocyclohexyl)-5-methyl-4-oxo-3H,4H-pyrido[2,3-d]pyrimidin-2-yl]-2-(3,5-difluorophenyl)ethyl]-2-[(2S,4R)-9-(difluoromethyl)-5,5-difluoro-7,8-diazatricyclo[4.3.0.0^2,^4]nona-1(6),8-dien-7-yl]acetamide], the EC50 in data set [1] is 0.034 nM. For the same compound, the CC50 at 4 days in data set [2] is over 50 nM.

Consider `Cc1cc(C2CCC(F)(F)CC2)nc2nc([C@H](Cc3cc(F)cc(F)c3)NC(=O)Cn3nc(C(F)F)c4c3C(F)(F)[C@@H]3C[C@H]43)n(-c3ccc(Cl)c4c(NS(C)(=O)=O)nn(CCN5C[C@@H](F)[C@@H](F)C5)c34)c(=O)c12` (atropisomer, axis not shown; (P)) [Example 267, N-[(1S)-1-[(3P)-3-(4-chloro-1-{2-[(3R,4S)-3,4-difluoropyrrolidin-1-yl]ethyl}-3-methanesulfonamido-1H-indazol-7-yl)-7-(4,4-difluorocyclohexyl)-5-methyl-4-oxo-3H,4H-pyrido[2,3-d]pyrimidin-2-yl]-2-(3,5-difluorophenyl)ethyl]-2-[(2S,4R)-9-(difluoromethyl)-5,5-difluoro-7,8-diazatricyclo[4.3.0.0^2,^4]nona-1(6),8-dien-7-yl]acetamide], for which the EC50 in data set [1] came out at 0.015 nM. In addition, the CC50 at 4 days in data set [2] is over 50 nM.

Consider `Cc1cc(C2CCC(F)(F)CC2)nc2nc([C@H](Cc3cc(F)cc(F)c3)NC(=O)Cn3nc(C(F)F)c4c3C(F)(F)[C@@H]3C[C@H]43)n(-c3ccc(Cl)c4c(NS(C)(=O)=O)nn(CCN5CC(C(F)F)C5)c34)c(=O)c12` (atropisomer, axis not shown; (P)) [Example 268, N-[(1S)-1-[(3P)-3-(4-chloro-1-{2-[3-(difluoromethyl)azetidin-1-yl]ethyl}-3-methanesulfonamido-1H-indazol-7-yl)-7-(4,4-difluorocyclohexyl)-5-methyl-4-oxo-3H,4H-pyrido[2,3-d]pyrimidin-2-yl]-2-(3,5-difluorophenyl)ethyl]-2-[(2S,4R)-9-(difluoromethyl)-5,5-difluoro-7,8-diazatricyclo[4.3.0.0^2,^4]nona-1(6),8-dien-7-yl]acetamide], for which the EC50 in data set [1] came to 0.015 nM. The CC50 at 4 days in data set [2] was over 50 nM.

Turning to `Cc1cc(C2CCC(F)(F)CC2)nc2nc([C@H](Cc3cc(F)cc(F)c3)NC(=O)Cn3nc(C(F)F)c4c3C(F)(F)[C@@H]3C[C@H]43)n(-c3ccc(Cl)c4c(NS(C)(=O)=O)nn(CCN5CCCCC5)c34)c(=O)c12` (atropisomer, axis not shown; (P)) [Example 269, N-[(1S)-1-[(3P)-3-{4-chloro-3-methanesulfonamido-1-[2-(piperidin-1-yl)ethyl]-1H-indazol-7-yl}-7-(4,4-difluorocyclohexyl)-5-methyl-4-oxo-3H,4H-pyrido[2,3-d]pyrimidin-2-yl]-2-(3,5-difluorophenyl)ethyl]-2-[(2S,4R)-9-(difluoromethyl)-5,5-difluoro-7,8-diazatricyclo[4.3.0.0^2,^4]nona-1(6),8-dien-7-yl]acetamide], in data set [1], the EC50 was 0.018 nM. The CC50 at 4 days in data set [2] was over 50 nM.

As to `Cc1cc(C2CCC(F)(F)CC2)nc2nc([C@H](Cc3cc(F)cc(F)c3)NC(=O)Cn3nc(C(F)F)c4c3C(F)(F)[C@@H]3C[C@H]43)n(-c3ccc(Cl)c4c(NS(C)(=O)=O)nn(CCN5CCC(F)CC5)c34)c(=O)c12` (atropisomer, axis not shown; (P)) [Example 270, N-[(1S)-1-[(3P)-3-{4-chloro-1-[2-(4-fluoropiperidin-1-yl)ethyl]-3-methanesulfonamido-1H-indazol-7-yl}-7-(4,4-difluorocyclohexyl)-5-methyl-4-oxo-3H,4H-pyrido[2,3-d]pyrimidin-2-yl]-2-(3,5-difluorophenyl)ethyl]-2-[(2S,4R)-9-(difluoromethyl)-5,5-difluoro-7,8-diazatricyclo[4.3.0.0^2,^4]nona-1(6),8-dien-7-yl]acetamide], the EC50 in data set [1] was found to be 0.011 nM. Also, the CC50 at 4 days in data set [2] was over 50 nM.

Turning to `Cc1cc(C2CCC(F)(F)CC2)nc2nc([C@H](Cc3cc(F)cc(F)c3)NC(=O)Cn3nc(C(F)F)c4c3C(F)(F)[C@@H]3C[C@H]43)n(-c3ccc(Cl)c4c(NS(C)(=O)=O)nn(CCN5CCC(C)(F)CC5)c34)c(=O)c12` (atropisomer, axis not shown; (P)) [Example 271, N-[(1S)-1-[(3P)-3-{4-chloro-1-[2-(4-fluoro-4-methylpiperidin-1-yl)ethyl]-3-methanesulfonamido-1H-indazol-7-yl}-7-(4,4-difluorocyclohexyl)-5-methyl-4-oxo-3H,4H-pyrido[2,3-d]pyrimidin-2-yl]-2-(3,5-difluorophenyl)ethyl]-2-[(2S,4R)-9-(difluoromethyl)-5,5-difluoro-7,8-diazatricyclo[4.3.0.0^2,^4]nona-1(6),8-dien-7-yl]acetamide], the EC50 in data set [1] is 0.015 nM. For the same compound, the CC50 at 4 days in data set [2] was over 50 nM.

On to `Cc1cc(C2CCC(F)(F)CC2)nc2nc([C@H](Cc3cc(F)cc(F)c3)NC(=O)Cn3nc(C4CC4)c4c3C[C@@H]3C[C@H]43)n(-c3ccc(Cl)c4c(NS(C)(=O)=O)nn(CCN5CCCC5)c34)c(=O)c12` (atropisomer, axis not shown; (P)) [Example 273, N-[(1S)-1-[(3P)-3-{4-chloro-3-methanesulfonamido-1-[2-(pyrrolidin-1-yl)ethyl]-1H-indazol-7-yl}-7-(4,4-difluorocyclohexyl)-5-methyl-4-oxo-3H,4H-pyrido[2,3-d]pyrimidin-2-yl]-2-(3,5-difluorophenyl)ethyl]-2-[(2S,4S)-9-cyclopropyl-7,8-diazatricyclo[4.3.0.0^2,^4]nona-1(6),8-dien-7-yl]acetamide], for which the EC50 in data set [1] was determined as 0.02 nM. Also, the CC50 at 4 days in data set [2] was over 50 nM.

Take `Cc1cc(C2CCC(F)(F)CC2)nc2nc([C@H](Cc3cc(F)cc(F)c3)NC(=O)Cn3nc(C4CC4)c4c3C[C@@H]3C[C@H]43)n(-c3ccc(Cl)c4c(NS(C)(=O)=O)nn(CCN5CC(C(F)F)C5)c34)c(=O)c12` (atropisomer, axis not shown; (P)) [Example 275]: the EC50 in data set [1] was 0.012 nM. In addition, in data set [2], the CC50 at 4 days was over 50 nM.

The values above are taken from patent publication US12594276B2, “Inhibitors of human immunodeficiency virus replication” (ViiV Healthcare UK (No.5) Limited, priority 2024, dated 2026).
